Test results taken from patent publication US20060165823A1, “Topical delivery agents and methods for making and using therm” (priority 2003, published 2006).

Tested on: hair follicles and sebaceous glands of the dorsal skin
Experiment: Delivery of Nile Red fluorescent dye into hair follicles and sebaceous glands by delivery agents
Design: species or system Sprague Dawley rat; Fluorescence intensity: key to the marks not given beside the values
Conditions: rat, in vivo
Text: Mixtures of Nile Red fluorescent dye, were from Sigma Chemical Co., St. […] All mixtures were filtered through a 0.2 micron Millipore filter, available from Millipore Corp., Bedford, Mass., to remove any undissolved Nile Red dye. […] Before the application of formulations, the hair of the rats was gently clipped with an electric clipper on their dorsal areas. […] The amount of Nile Red delivered is evidenced by the intensity of the orange-red fluorescence depicted in the photomicrographs. […] Orange-red fluorescence due to Nile Red dye on the skin surface (stratum corneum) was not evaluated.

## Jojoba Oil
  Fluorescence intensity: ++++
  Penetration of the skin and distribution in the pilosebaceous unit: can penetrate the skin through the opening of the hair follicle and distribute itself throughout the hair shaft and sebaceous gland

## C[S+](C)[O-] [DMSO, Dimethyl Sulfoxide, reference compound]
  Fluorescence intensity: +++
